In brackets after ≈: the same amount, converted by molar mass.
Settings: buffer; pH 7.4; 200.0 µM

| SMILES | solubility kinetic [µg/mL] |
| --- | --- |
| CCOc1cnc(-c2c(-c3c(F)cccc3Cl)noc2C)o1 | 9.1 (≈ 28.2 µM) |
| CN1CCC(CN)(N2CCN(c3ccccc3)CC2)CC1 | 41.9 (≈ 145 µM) |
| CNC(=S)Nc1cccc(S(=O)(=O)NCc2ccco2)c1 | > 48.8 |
| Cc1ccc2cccc(OCC(=O)N3CC(C)CC(C)C3)c2n1 (stereo unspecified) | 46.2 (≈ 148 µM) |
| CC1=C(C(=O)OC2CCCCC2)C(c2ccc(F)cc2)NC(=O)N1 (stereo unspecified) | 31.2 (≈ 93.9 µM) |
| COc1ccc(CNC(=O)CCC(=O)Nc2ccc(Cl)cc2)cc1 | 1.3 (≈ 3.75 µM) |
| Cc1onc(-c2ccccc2)c1CNS(=O)(=O)c1ccccc1 | 44 (≈ 134 µM) |
| Cc1ccc(S(=O)(=O)NC(=O)c2ccccc2F)cc1 | > 44 |
| N#C/C(=C\Nc1ccc2c(c1)OCCO2)C(=O)NCc1ccco1 | 4.6 (≈ 14.1 µM) |
| CN1C(=O)C2(OCCCO2)c2cc(Cl)ccc21 | > 38.1 |
| COc1cccc(NC(=O)C2CCCO2)c1 (stereo unspecified) | 30.5 (≈ 138 µM) |
| Cc1ccnc(N2CCCC(C(=O)NC3CC3)C2)n1 (stereo unspecified) | 37.3 (≈ 143 µM) |
| CSc1ccccc1C(=O)Nc1cc([N+](=O)[O-])ccc1C | 2 (≈ 6.61 µM) |
| Cn1c(C(=O)O)cc2c(=O)n3ccccc3nc21 | > 36.5 |
| CC(=O)NC1=NN(C(C)=O)C(C)(c2cccnc2)S1 (stereo unspecified) | > 41.7 |
| CCOC(=O)C1(Cc2ccccc2)CCCN(C2CCCC2)C1 (stereo unspecified) | > 47.3 |
| CCOC(=O)c1c(C)[nH]c(C)c1C(=O)COC(=O)C1CC(=O)N(CCc2ccccc2)C1 (stereo unspecified) | > 66.1 |
| Cc1nnc(N)s1 | > 17.3 |
| Cc1ccc(C)c(-n2c3nc(=O)n(C)c(=O)c-3cc3ccccc32)c1 | > 49.7 |
| COc1ccc(NC(=O)C2(c3ccccc3)CCCC2)cc1 | 2.6 (≈ 8.8 µM) |
| O=C1Nc2ccccc2C1Cc1nc2ccccc2c(=O)n1-c1ccccc1 (stereo unspecified) | 55.1 (≈ 150 µM) |
| c1ccc(CN2CCC(Nc3ncnc4sccc34)CC2)cc1 | 46.2 (≈ 142 µM) |
| CCOc1ccc(Cn2cc(F)c(=O)[nH]c2=O)cc1 | > 39.6 |
| Cc1ccc(N=C2C(=O)Nc3ccccc32)cc1 | 30.5 (≈ 129 µM) |
| Cc1nc(SC(C(N)=O)c2ccccc2)c(C#N)c(C)c1C (stereo unspecified) | 1 (≈ 3.21 µM) |

| SMILES | solubility kinetic [µg/mL] |
| --- | --- |
| O=C(NN=C1CCCCC1)c1ccccc1-n1cccc1 | > 42.2 |
| S=C(NCCc1ccc(Cl)cc1)NC1CCCCC1 | 4 (≈ 13.5 µM) |
| O=C(Cn1c2ccc(F)cc2c2nc3n(c(=O)c21)CCS3)N1CCCC1 | > 55.9 |
| CC1CN(c2nc3ccccc3nc2NS(=O)(=O)c2ccccc2)CC(C)O1 (stereo unspecified) | > 59.8 |
| Cc1ccc(C(=O)Nc2ccc3ncccc3c2)cc1 | 6.9 (≈ 26.3 µM) |
| Cc1cnc(C(=O)OC(C)C(=O)NCc2ccccc2)cn1 (stereo unspecified) | > 44.9 |
| CCn1c(=O)c(C(=O)Nc2ccc(C)cc2)c(O)c2ccccc21 | < 0.3 |
| Cc1cccc(OCCOC(=O)c2c(-c3ccccc3)noc2C)c1 | 1.1 (≈ 3.26 µM) |
| CCOC(=O)COc1nc2c(c(-c3ccco3)c1C#N)CCc1ccccc1-2 | 1.5 (≈ 4.01 µM) |
| Cn1c(/C=C/c2ccc(Br)cc2)nc2ccccc2c1=O | < 0.4 |
| CN(C)/C=C/C(=O)c1ccn(S(=O)(=O)c2ccccc2)c1 | > 45.7 |
| N#Cc1ccccc1NC(=O)c1ccc2c(c1)OCO2 | 10.8 (≈ 40.6 µM) |
| CCOC(=O)c1ccc2c(c1)nc(-c1ccccn1)n2CC | 11.4 (≈ 38.6 µM) |
| Cc1ccc(S(=O)(=O)N2CCN(C(=O)Cn3c(=O)oc4ccccc43)CC2)cc1 | 12.7 (≈ 30.6 µM) |
| CC(=O)N(CCc1ccccc1)Cc1cc2ccc(C)c(C)c2[nH]c1=O | 17.4 (≈ 49.9 µM) |
| CC(C)CNCC1OCc2ccccc2CO1.Cl | > 40.8 |
| C=CCn1c(CCNC(=O)c2ccco2)nc2ccccc21 | > 44.3 |
| Cc1ccc(OCCNC(=O)c2ccc(C)o2)cc1 | > 38.9 |
| COc1ccc2nc(NC(=O)c3ccco3)sc2c1 | 7.4 (≈ 27 µM) |
| O=C(Nc1ccon1)Nc1ccc(F)cc1F | > 35.9 |
| COC(=O)COc1cccc(NC(=O)c2cc(OC)cc(OC)c2)c1 | 49.6 (≈ 144 µM) |
| COC(=O)c1c(C)[nH]c(C(=O)/C=C/c2ccccc2F)c1C | 0.8 (≈ 2.66 µM) |
| Cc1ccccc1C(=O)NCCNC(=O)c1ccccn1 | 39.3 (≈ 139 µM) |
| O=C(CSCc1ccco1)N1CCc2ccccc21 | 36.9 (≈ 135 µM) |
| COCCN1Cc2cc(=O)n3c([nH]c4ccccc43)c2C1=N | 5.1 (≈ 17.2 µM) |

| SMILES | solubility kinetic [µg/mL] |
| --- | --- |
| O=C(OCc1cncs1)c1cccs1 | > 33.8 |
| COC(=O)c1ccc(/C=C/C(=O)OCC(=O)Nc2cc(C)on2)cc1 | 3 (≈ 8.71 µM) |
| Cc1c(C)n(Cc2ccccc2)c2ncnc(NCCCN(C)C)c12 | > 50.6 |
| O=C(O)c1ccc(Cl)c(S(=O)(=O)Nc2ccc(S(=O)(=O)N3CCCC3)cc2)c1 | > 66.7 |
| COc1ccc(S(=O)(=O)N2CCc3ccccc32)cc1C(=O)N1CCC(C)CC1 | 57.8 (≈ 139 µM) |
| Oc1cccc2ccc(/C=C/c3ccccc3Cl)nc12 | < 0.6 |
| Cc1nnc(SCC(=O)N(C)C2CCCCC2)s1 | > 42.8 |
| NC(=Nc1ccc(Cl)cc1)c1ccccc1 | > 34.6 |
| O=C(Cc1ccccc1F)Nc1ccc2c(c1)CCC2 | 4.7 (≈ 17.5 µM) |
| N#Cc1c(NCCCO)nc(NCc2ccccc2)c2c1CCN(Cc1ccccc1)C2 | 7.7 (≈ 18 µM) |
| O=C(CSc1ncccn1)NCc1ccc2c(c1)OCO2 | > 45.5 |
| Cc1cccc(NC(=O)CCN2CCCC(C)C2)c1.Cl (stereo unspecified) | > 44.5 |
| O=C(O)c1ccc(NC(=O)c2ccc(COc3ccccc3)o2)cc1 | > 50.6 |
| COc1ccccc1C(=O)NCCCCNC(=O)c1ccccc1OC | > 53.5 |
| CCOC(=O)CC1C(=O)NCCN1C1CCCC1 (stereo unspecified) | > 38.1 |
| Cc1onc(-c2c(F)cccc2Cl)c1C(=O)NCCO | > 44.8 |
| COc1cc(Nc2ncnc(N)n2)cc(OC)c1 | > 37.1 |
| Cc1ccc(C)c(N2CC(C(=O)O)CC2=O)c1 (stereo unspecified) | > 35 |
| c1ccc2[nH]c(-c3cnco3)cc2c1 | 21.6 (≈ 117 µM) |
| O=C(Cn1cc([N+](=O)[O-])ccc1=O)NCC(=O)Nc1ccc(F)c(F)c1F | 9.2 (≈ 23.9 µM) |
| CN(Cc1ccccc1)c1c([N+](=O)[O-])c(=O)n(C)c2ccccc12 | 2.7 (≈ 8.35 µM) |
| O=C(Nc1ccc(Cl)c(Cl)c1)N1CCCCCC1 | 0.9 (≈ 3.13 µM) |
| Cn1cc(C(=O)C(=O)N2CCCC2)c2ccccc21 | > 38.4 |
| CC(C)C(=O)N1CCN(S(=O)(=O)c2ccc3ccccc3c2)CC1 | 23.2 (≈ 67 µM) |
| Cc1ccc(/C=N/NC(=O)CN2CCN(Cc3ccccc3Cl)CC2)o1 | > 56.2 |

| SMILES | solubility kinetic [µg/mL] |
| --- | --- |
| CCc1cccc(C)c1NC(=O)CC(C)(C)CC(=O)O | > 41.6 |
| O=C(COC(=O)c1cc(=O)[nH]c(=O)[nH]1)Nc1ccccc1F | > 46.1 |
| COc1ccc(NC(=O)c2c(N)no[n+]2[O-])cc1 | 3 (≈ 12 µM) |
| Cc1ccc(C)c(C(C)NC(=S)NCc2ccc(F)cc2)c1 (stereo unspecified) | 1.4 (≈ 4.42 µM) |
| COc1ccc2[nH]cc(C(=O)C(=O)N3CCCCC3)c2c1 | > 42.9 |
| Cc1cccc(CN2CCN(C(=S)Nc3ccccc3)CC2)c1 | > 48.8 |
| O=Cc1sc(N2CCOCC2)nc1-c1ccccc1 | 4.5 (≈ 16.4 µM) |
| Cl.O=C(/C=C/c1ccco1)OCC1CCCN2CCCCC12 (stereo unspecified) | > 48.9 |
| COc1ccc(C(=O)Nc2cccc3c2CCCC3)cc1OC | 1 (≈ 3.21 µM) |
| COc1ccccc1NS(=O)(=O)c1ccc(C(=O)N2CCN(c3ccccn3)CC2)cc1 | 53.9 (≈ 119 µM) |
| CCn1c(/N=C/c2ccccc2O)nc2ccccc21 | 36.9 (≈ 139 µM) |
| Cc1ccc(Cn2ccc(O)c(Cc3ccccc3)c2=O)cc1 | < 0.7 |
| CCOC(=O)c1csc(NC(=O)c2cccs2)n1 | 28.9 (≈ 102 µM) |
| CCN(CC(=O)NC(=O)NCc1ccccc1)Cc1ccccc1 | 40.9 (≈ 126 µM) |
| Cc1nc(CSc2ccc(Br)cc2)cs1 | 8.8 (≈ 29.3 µM) |
| O=C(O)CSc1ccnc2cc(Cl)ccc12 | > 38.1 |
| Cc1nc(-c2ccccc2)sc1C(=O)Nc1ccccc1F | 1.8 (≈ 5.76 µM) |
| Cc1c(NC(=O)[C@@H](NC(=O)c2ccc(Cl)c([N+](=O)[O-])c2)C(C)C)c(=O)n(-c2ccccc2)n1C | > 72.9 |
| COc1ccc(OCCN2C(=O)c3cccc(N)c3C2=O)cc1 | 1.1 (≈ 3.52 µM) |
| Cc1ccc(NC(=O)CO/N=C(\N)c2ccccc2)cc1C | 5 (≈ 16.8 µM) |
| O=C(O)CN1CCN(C(c2ccccc2)c2ccccc2)CC1 | > 46.6 |
| O=C(O)C(NS(=O)(=O)c1ccccc1)C(O)c1ccccc1 (stereo unspecified) | 33.9 (≈ 105 µM) |
| CC(C)c1ccc(NC(=O)NCc2ccccn2)cc1 | > 40.4 |
| CN(C)/C=C1/OC(=O)C(C#N)=C1c1ccc(Cl)cc1 | 2.4 (≈ 8.74 µM) |
| Cc1ccc(C)c2c1N(Cc1ccccc1)C(=O)C21OCCO1 | < 0.7 |

| SMILES | solubility kinetic [µg/mL] |
| --- | --- |
| N#Cc1c(Nc2ccccc2Cl)s[nH]c1=O | > 37.8 |
| CC(C)CC(=O)Nc1cccc(-c2nc3ccccc3[nH]2)c1 | 32.2 (≈ 110 µM) |
| Cc1ccc(NC(=S)NCc2ccc(F)cc2)c(C)c1 | 36.2 (≈ 126 µM) |
| COc1ccccc1NC(=O)c1ccc2nc(C)c(C)nc2c1 | 16.3 (≈ 53 µM) |
| O=C1CN(C(=S)Nc2ccc(OC(F)F)cc2)CCN1 | > 45.2 |
| COc1ccc(CNC(=O)N[C@H](C(=O)O)C(C)C)cc1OC | > 46.6 |
| CCOC(=O)CNC(=O)c1cnc(Nc2ccccc2OC)c2ccccc12 | 5.4 (≈ 14.2 µM) |
| O=C(Nc1cc(C(F)(F)F)ccc1N1CCOCC1)C1CCCO1 (stereo unspecified) | > 51.6 |
| Cc1cccc(C(=O)OCC(=O)NC(C)C2CC3CCC2C3)c1O (stereo unspecified) | 4.1 (≈ 12.4 µM) |
| O=C(Nc1ccc(OCc2ccccc2)cc1)c1cccs1 | < 0.7 |
| Cl.c1ccc(-c2ccc(CNC3CC3)cc2)cc1 | 37.9 |
| Cc1cc(C)n2nc(SCC(=O)Nc3ccccc3F)nc2n1 | > 49.7 |
| COC(=O)c1ccc(=O)n(CC(=O)c2ccc(Cl)cc2)c1 | > 45.9 |
| Cc1cc(O)cc(=O)n1CCc1ccccc1 | > 34.4 |
| Brc1ccc(CN2CCN(c3ccccc3)CC2)o1 | 22.5 (≈ 70 µM) |
| O=C(Cn1cc(C(F)(F)F)ccc1=O)Nc1ccccc1 | 10 (≈ 33.8 µM) |
| O=S(=O)(Cc1ccccc1)Nc1ccc(F)cc1 | > 39.8 |
| CN(Cc1nc(-c2ccccc2)no1)C(=O)c1ccco1 | > 42.5 |
| COc1ccc(CCC(C)N(C)Cc2ccccc2)cc1 (stereo unspecified) | 34.9 (≈ 123 µM) |
| CC(=O)Nc1ccc2sc(C)nc2c1 | > 30.9 |
| COc1cc(CNc2ccc3[nH]c(=O)[nH]c3c2)ccc1OCC(=O)NC(C)(C)C | 52.3 (≈ 131 µM) |
